# Test results as given in PubChem BioAssay (NCI).
#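 Exposure lasted 48 hours, with cells grown in 96-well plates and compounds tested at five concentrations. At the GI50, growth is halved. TGI is the concentration that stops growth completely.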
# Legend:
# Experiment in all cases: growth of human tumour cells (NCI), 48 h
# [1] = test system: EKVX NSCLC
# [2] = test system: OVCAR-8 ovarian
# [3] = test system: PC-3 prostate
# [4] = test system: RXF 393 renal
# [5] = test system: NCI-H23 lung
# [6] = test system: UACC-62 melanoma
# [7] = test system: SF-295 CNS
# [8] = test system: A498 renal
# [9] = test system: HCT-116 colon
# [10] = test system: NCI-H460 lung
# [11] = test system: MDA-MB-435
# [12] = test system: UO-31 renal
# [13] = test system: OVCAR-4 ovarian
# [14] = test system: SF-539 CNS
# [15] = test system: SF-268 CNS
# [16] = test system: SK-OV-3 ovarian
# [17] = test system: U251 CNS
# [18] = test system: UACC-257 melanoma
# [19] = test system: OVCAR-5 ovarian
# [20] = test system: HCT-15 colon
# [21] = test system: CAKI-1 renal
# [22] = test system: IGROV1 ovarian
# [23] = test system: SNB-75 CNS
# [24] = test system: MCF7 breast
# [25] = test system: 786-0 renal
# [26] = test system: HOP-92 NSCLC
# [27] = test system: SN12C renal
# [28] = test system: NCI-H522 lung
# [29] = test system: MALME-3M melanoma
# [30] = test system: HOP-62 NSCLC
# [31] = test system: CCRF-CEM leukemia
# [32] = test system: HT29 colon
# [33] = test system: BT-549 breast
# [34] = test system: NCI/ADR-RES ovarian
# [35] = test system: SK-MEL-2 melanoma
# [36] = test system: K-562 leukemia
# [37] = test system: SK-MEL-5 melanoma
# [38] = test system: LOX IMVI melanoma
# [39] = test system: SW-620 colon
# [40] = test system: T-47D breast
# [41] = test system: MOLT-4 leukemia
# [42] = test system: HL-60(TB) leukemia
# [43] = test system: DU-145 prostate
# [44] = test system: SR leukemia
# [45] = test system: KM12 colon
# [46] = test system: COLO 205 colon
# [47] = test system: OVCAR-3 ovarian
# [48] = test system: SK-MEL-28 melanoma
# [49] = test system: MDA-MB-231 breast
# [50] = test system: NCI-H226 lung
# [51] = test system: A549 NSCLC
# [52] = test system: M14 melanoma
# [53] = test system: HCC-2998 colon
# [54] = test system: RPMI-8226 leukemia
# [55] = test system: HS 578T breast
# [56] = test system: ACHN renal
structure (smiles),measurement,setting,value
COc1cc2nc(NC3CCC3)nc(NC3CCN(C(C)C)CC3)c2cc1OC,GI50,[1],4.65 µM
same,TGI,[1],23.4 µM
same,GI50,[2],3.97 µM
same,TGI,[2],26.2 µM
same,GI50,[3],3.51 µM
same,TGI,[3],20.7 µM
same,GI50,[4],1.38 µM
same,TGI,[4],2.85 µM
same,GI50,[5],4.61 µM
same,TGI,[5],17.7 µM
same,GI50,[6],1.79 µM
same,TGI,[6],3.35 µM
same,GI50,[7],1.87 µM
same,TGI,[7],3.67 µM
same,GI50,[8],1.24 µM
same,TGI,[8],7.05 µM
same,GI50,[9],1.78 µM
same,TGI,[9],4.39 µM
same,GI50,[10],3.36 µM
same,TGI,[10],12.1 µM
same,GI50,[11],1.77 µM
same,TGI,[11],3.33 µM
same,GI50,[12],1.43 µM
same,TGI,[12],2.78 µM
same,GI50,[13],3.25 µM
same,TGI,[13],20.9 µM
same,GI50,[14],1.81 µM
same,TGI,[14],3.36 µM
same,GI50,[15],2.5 µM
same,TGI,[15],8.88 µM
same,GI50,[16],8 µM
same,TGI,[16],33.7 µM
same,GI50,[17],1.95 µM
same,TGI,[17],4.52 µM
same,GI50,[18],1.89 µM
same,TGI,[18],3.78 µM
same,GI50,[19],4.01 µM
same,TGI,[19],19.1 µM
same,GI50,[20],2.16 µM
same,TGI,[20],5.15 µM
same,GI50,[21],1.59 µM
same,TGI,[21],3.17 µM
same,GI50,[22],7.08 µM
same,TGI,[22],24 µM
same,GI50,[23],1.41 µM
same,TGI,[23],4.4 µM
same,GI50,[24],2.96 µM
same,TGI,[24],13 µM
same,GI50,[25],1.85 µM
same,TGI,[25],3.91 µM
same,GI50,[26],1.46 µM
same,TGI,[26],3.64 µM
same,GI50,[27],3.92 µM
same,TGI,[27],16.1 µM
same,GI50,[28],1.96 µM
same,TGI,[28],4.52 µM
same,GI50,[29],1.76 µM
same,TGI,[29],3.23 µM
same,GI50,[30],2.6 µM
same,TGI,[30],11 µM
same,GI50,[31],2.21 µM
same,TGI,[31],5.11 µM
same,GI50,[32],1.75 µM
same,TGI,[32],3.97 µM
same,GI50,[33],1.71 µM
same,TGI,[33],3.7 µM
same,GI50,[34],15.6 µM
same,TGI,[34],65 µM
same,GI50,[35],1.9 µM
same,TGI,[35],3.79 µM
same,GI50,[36],0.902 µM
same,TGI,[36],10.2 µM
same,GI50,[37],1.75 µM
same,TGI,[37],3.15 µM
same,GI50,[38],1.72 µM
same,TGI,[38],3.23 µM
same,GI50,[39],2.49 µM
same,TGI,[39],7.02 µM
same,GI50,[40],1.95 µM
same,TGI,[40],4.11 µM
same,GI50,[41],2.83 µM
same,TGI,[41],8.48 µM
same,GI50,[42],2.06 µM
same,TGI,[42],4.05 µM
same,GI50,[43],4.04 µM
same,TGI,[43],14.9 µM
same,GI50,[44],0.631 µM
same,TGI,[44],3.33 µM
same,GI50,[45],4.01 µM
same,TGI,[45],14.7 µM
same,GI50,[46],1.88 µM
same,TGI,[46],3.81 µM
same,GI50,[47],4.23 µM
same,TGI,[47],16.6 µM
same,GI50,[48],1.94 µM
same,TGI,[48],3.66 µM
same,GI50,[49],1.84 µM
same,TGI,[49],3.79 µM
same,GI50,[50],6 µM
same,TGI,[50],21.8 µM
same,GI50,[51],3.08 µM
same,TGI,[51],14.5 µM
same,GI50,[52],1.88 µM
same,TGI,[52],3.46 µM
same,GI50,[53],1.7 µM
same,TGI,[53],3.46 µM
same,GI50,[54],1.71 µM
same,TGI,[54],4.06 µM
same,GI50,[55],2.08 µM
same,TGI,[55],5.45 µM
same,GI50,[56],2.7 µM
same,TGI,[56],7.4 µM
